Data from patent US12319652B2, “Salts and solid forms of (R)-1-(5-methoxy-1H-indol-1-yl)-N,N-dimethylpropan-2-amine” (priority 2021, dated 2025).

Columns and labels:
[1] = format: physicochemical
Procedure: Equilibrium Humidity Evaluation (40° C./75% RH for 10 Days)
100 mg portions of compound 1 salts (for inputs see table below) were placed in the relevant open vials. The powders were finely divided and distributed evenly over the base of the vial, such that equal material coverage across the panel was observed. These samples were then maintained 40°C. under 75% RH. The samples were sub-sampled at intervals of 5 and 10 days and analysed by ^1H NMR, HPLC, XRPD, DSC, TGA and PLM, for evidence of phase change or chemical degradation (FIG. 269-297).

[2] = Dynamic vapor sorption (DVS); format: physicochemical; details: for DVS isotherm type / hygroscopicity: 0 to 90 to 0% RH; for DVS desorption behaviour (hysteresis): during desorption
Procedure: There are two main methods to use, one is by time where the equilibration is given by a fixed time, i.e., 1 hour per step and is appropriate for an unknown phase. The second, is by mass per time unit (dm/dt) of 0.002%/min; that is when the difference in weight is less than 0.002%, the instrument moves onto the next step. For unknown hygroscopicity, the method by time is indicated because it gives an idea of water affinity without wasting much time. Ideally the analyses are repeated using the mass equilibration method to confirm. By experience for hygroscopic samples, the analysis can continue for days. For non-hygroscopic samples the difference between the two methods may not be significant.
Consequently, amorphous batch 1 was analyzed by the fixed time method and once compound 1 fumarate crystalline polymorphic Form A was generated the analyses was repeated as mass per unit time equilibrated @dm/dt ([…]) and is given below (refer to FIG. 12).
(§1) The moisture sorption properties of the feed API were analysed by DVS Intrinsic instrument (Surface Measurement System). Approximately 20 to 50 mg of API was weighed onto an aluminium pan and loaded into the instrument equilibrated at 25° C. The sample was equilibrated under a dry atmosphere (0% relative humidity) for 60 minutes, before increasing the humidity from 0% to 30% at 5%4 step increment and from 30% to 90% at 10% step increment. A desorption cycle was also applied from 90% to 30% (10% step decrement) and from 30% to 0% (5% step decrement). A rate of change in mass per time unit (dm/dt) of 0.002%/min was set as the equilibrium parameter. Kinetic and isotherm graphs were calculated.
Specimens were equilibrated at 0% RH for 60 min, prior to DVS analyses (stepped increment % RH up to 90% RH and stepped decrement % RH down to 0% RH.
as §1, with “5%” for “5%4”

[3] = Solubility determinations in SIF buffers (FaSSIF, FeSSIF, FaSSGF); format: physicochemical
Procedure: At this stage ca. 1 g of each front-runner salt form was prepared. Salt forms that offered significant solubility and stability advantages over the non-ionized API were prioritized. […] Scale Up
The solubility of the salts below was determined in FaSSIF, FeSSIF and FaSSGF by reference to the calibration curve of amorphous compound 1.
Separate portions of compound 1 were weighed out into aluminum boats and were charged to the relevant volumetric flasks. Solutions were made to volume with 1 to 1 (v/v) acetonitrile/purified water to give calibrants of known API concentrations and analyzed by HPLC, suitable to determine the concentration of compound 1 free base in the SIF buffer solubility study.
Each sample (150 mg) was suspended in the relevant SIF buffer (5.0 ml), to give a concentration of 30 mg/ml and maintain at 37° C. for 24 h. The pH was adjusted using 1 M HCl or 1 M NaOH, to ensure that the suspension remains in range.
Sample (1 ml) of the well-stirred representative suspensions was obtained at 1 h, 3 h, 6 h and 24 h and the pH was recorded. The pH of the bulk suspension was re-adjusted when necessary. The obtained sample from each vial was centrifuged, and the supernatant was analysed by HPLC (note, the analyte was diluted, when outside of the calibration range); XRPD analysis was performed on the wet sample pellet for evidence of form change, as well as on the oven-dried pellet (undervacuum at 40° C.).

[4] = Equilibrium humidity evaluation of crystalline compound 1 HCl Form A (95% RH/20° C.); format: physicochemical; details: 20° C./95% RH, open-capped and double bagged vials, 10-day period
Procedure: The stability of crystalline compound 1 HCl Form A was evaluated. Absorbent compound 1·Cl (Form A), (100 mg) was maintained, open-capped at 95% RH/20° C. and monitored at t=0, t=5 d and t=10 d, time points.
While absorbent Compound 1 HCl Form A), (100 mg) was placed open-capped inside double, cable-tied, electrostatic polythene bags (to mimic a typical packaging configuration) and placed inside the same humidity chamber at 95% RH at 20° C. and monitored at t=0, t=5 d and t=10 d time points. Stability of compound 1·HCl (Form A) at 40° C./75% RH was examined as part of the salt screen, and was stable over 10 d.

[5] = listed as crystalline compound 1 HCl Form A

## COc1ccc2c(ccn2C[C@@H](C)N(C)C)c1.O=C(O)c1ccccc1 [compound 1 benzoate]
[1]; 40° C./75% RH, 10-day time point
  Change of purity profile / CP: little changed
[2]
  DVS isotherm type / hygroscopicity: hygroscopic
  DVS desorption behaviour (hysteresis): desorption profile was unusual and ended beneath unity
[2]; 5.0% RH, desorption
  DVS 0 to 90 to 0% RH (dm/dt <0.002%): -0.39%
[2]; 5.0% RH, sorption
  DVS 0 to 90 to 0% RH (dm/dt <0.002%): 0.02%
[2]; 10.0% RH, desorption
  DVS 0 to 90 to 0% RH (dm/dt <0.002%): −0.34%
[2]; 10.0% RH, sorption
  DVS 0 to 90 to 0% RH (dm/dt <0.002%): 0.04%
[2]; 15.0% RH, desorption
  DVS 0 to 90 to 0% RH (dm/dt <0.002%): -0.29%
[2]; 15.0% RH, sorption
  DVS 0 to 90 to 0% RH (dm/dt <0.002%): 0.06%
[2]; 20.0% RH, desorption
  DVS 0 to 90 to 0% RH (dm/dt <0.002%): −0.25%
[2]; 20.0% RH, sorption
  DVS 0 to 90 to 0% RH (dm/dt <0.002%): 0.10%
[2]; 25.0% RH, desorption
  DVS 0 to 90 to 0% RH (dm/dt <0.002%): −0.19%
[2]; 25.0% RH, sorption
  DVS 0 to 90 to 0% RH (dm/dt <0.002%): 0.10%
[2]; 30.0% RH, desorption
  DVS 0 to 90 to 0% RH (dm/dt <0.002%): -0.16%
[2]; 30.0% RH, sorption
  DVS 0 to 90 to 0% RH (dm/dt <0.002%): 0.13%
[2]; 40.0% RH, desorption
  DVS 0 to 90 to 0% RH (dm/dt <0.002%): −0.19%
[2]; 40.0% RH, sorption
  DVS 0 to 90 to 0% RH (dm/dt <0.002%): 0.19%
[2]; 50.0% RH, desorption
  DVS 0 to 90 to 0% RH (dm/dt <0.002%): 0.20%
[2]; 50.0% RH, sorption
  DVS 0 to 90 to 0% RH (dm/dt <0.002%): 0.30%
[2]; 60.0% RH, desorption
  DVS 0 to 90 to 0% RH (dm/dt <0.002%): 0.41%
[2]; 60.0% RH, sorption
  DVS 0 to 90 to 0% RH (dm/dt <0.002%): 0.42%
[2]; 70% RH (printed 70° RH in Example 8)
  DVS weight gain at 70% RH: ca. 0.6 % w/w
[2]; 70.0% RH, desorption
  DVS 0 to 90 to 0% RH (dm/dt <0.002%): 0.61%
[2]; 70.0% RH, sorption
  DVS 0 to 90 to 0% RH (dm/dt <0.002%): 0.58%
[2]; 80.0% RH, desorption
  DVS 0 to 90 to 0% RH (dm/dt <0.002%): 0.92%
[2]; 80.0% RH, sorption
  DVS 0 to 90 to 0% RH (dm/dt <0.002%): 0.89%
[2]; 90.0% RH, desorption
  DVS 0 to 90 to 0% RH (dm/dt <0.002%): 1.52%
[2]; 90.0% RH, sorption
  DVS 0 to 90 to 0% RH (dm/dt <0.002%): 1.52%
[3]; 1H NMR of isolated residue, non-ionised benzoic acid present
  Disproportionation in FaSSGF: disproportionated
[3]; SIF buffer solubility study
  Observation upon pH adjustment from 4.17 to 1.63: solid was observed

## COc1ccc2c(ccn2C[C@@H](C)N(C)C)c1.Cl [Crystalline compound 1 HCl Form A]
[1]; 10 days, listed as compound 1·HCl (Form A)
  Stability at 40° C./75% RH: stable
[2]; listed as Compound 1·HCl Form A
  DVS isotherm type / hygroscopicity: slightly hygroscopic
[2]; [5]
  DVS isotherm type / hygroscopicity: Slightly hygroscopic
  DVS desorption behaviour (hysteresis): held on to a little water at 0% RH
[2]; desorption step, dm/dt <0.002%
  DVS mass change at 0.0% RH: 0.0239%
  DVS mass change at 5.0% RH: 0.0344%
  DVS mass change at 10.0% RH: 0.0455%
  DVS mass change at 15.0% RH: 0.0547%
  DVS mass change at 20.0% RH: 0.0648%
  DVS mass change at 25.0% RH: 0.0714%
  DVS mass change at 30.0% RH: 0.0860%
  DVS mass change at 40.0% RH: 0.0968%
  DVS mass change at 50.0% RH: 0.1367%
  DVS mass change at 60.0% RH: 0.1671%
  DVS mass change at 70.0% RH: 0.2211%
  DVS mass change at 80.0% RH: 0.2935%
[2]; sorption step, dm/dt <0.002%
  DVS mass change at 0.0% RH: DVS 0 to 90 to 0% RH (dm/dt <0.002%): 0.0 (0.0011%), 5.0
  DVS mass change at 5.0% RH: 0.0078%
  DVS mass change at 10.0% RH: 0.0161%
  DVS mass change at 15.0% RH: 0.0248%
  DVS mass change at 20.0% RH: 0.0329%
  DVS mass change at 25.0% RH: 0.0379%
  DVS mass change at 30.0% RH: 0.0462%
  DVS mass change at 40.0% RH: 0.0659%
  DVS mass change at 50.0% RH: 0.0961%
  DVS mass change at 60.0% RH: 0.1388%
  DVS mass change at 70.0% RH: 0.1902%
  DVS mass change at 80.0% RH: 0.2647%
  DVS mass change at 90.0% RH: 0.4599%
[4]
  Water uptake by TG analyses: did not show any water uptake
[3]; FaSSIF, FeSSIF and FaSSGF, 37° C., 24 h, concentration tested 30 mg/ml
  Solubility in SIF buffers: Solubility in SIF buffers: Soluble in all SIF buffers at 37 °C during 24 h.
